# Tests used:
# [1] = Interaction efficiency of drugs with apatite-based matrix (HPLC); type: physicochemical; set-up: concentration or dose not given beside the values; details: for Interaction efficiency (%) of each drug with apatite-based matrix: Table 1, mean±SD, triplicate
# Method: Apatite-based matrix as prepared above was allowed to interact with three types of drugs including cyclophosphamide (Cyp), methotrexate (Mtx) and 5-fluorouracil (5-FU) to form complexes. The complexes were then centrifuged at 13,000 rpm for 15 min and supernatant was discarded without disturbing the pellet. 100 μL of media was added to pellet to form a suspension and the suspension was used to perform high performance liquid chromatography (HPLC) analysis to estimate the concentration of drugs that could be adsorbed to the apatite-based matrix and also to evaluate the interaction efficiency of drugs with apatite-based matrix. The concentration of the drugs present in the supernatant was calculated from the peak area, using the standard curves. Data were represented as interaction efficiency (%) of drugs with apatite-based matrix, calculated using the following formula: […]
# Where [X]free drug and [X]CA-drug are the concentrations of free drug and drug-loaded apatite-based matrix in the supernatant calculated form the standard curves and [X]initial is the total concentration of drugs used to perform HPLC or the total concentration initially mixed for preparation of apatite-drug formulations. Each experiment was done in triplicate and shown as mean±SD.
# (7) Ca^2+ and Sr^2+ Effects of Ca^2+ and Sr^2+ on apatite-based matrix formation were analysed by adding exogenous CaCl2 and SrCl2 in apatite-based matrix fabrication respectively, while keeping other salts being constant. The size of the apatite-based matrix formed with exogenous CaCl2 and SrCl2 were measured, followed by evaluation on the interaction efficiency (%) of apatite-based matrix with drugs which is indicated in Table 2.
# [2] = Cellular uptake of Dox-loaded CA NPs and CMCA NPs; type: cell-based
# Description: Further, the interaction between CMCA NP and the drug i.e. doxorubicin (denoted briefly as Dox) was studied by comparing the size and binding affinity of CA NP and CMCA NP that were loaded with Dox. The positively charged DOX might bind electrostatically with negatively charged domains (rich in bicarbonate, phosphate or citrate) on CMCA NP and CA NP, causing the net charge of the DOX-loaded CMCA NPs and CA NPs more electropositive than that of the free NPs, as shown in FIGS. 28 (b) and (d). […] In addition, the evaluation on cellular uptake of Dox-loaded CA NPs and CMCA NPs was performed after 1 hour and 4 hours of treatment.
# [3] = test system: MCF7 cell line; assay: Time-dependent cellular uptake by HPLC; type: cell-based
# Method: HPLC was performed to determine time-dependent cellular uptake (%) of pharmaceutical composition and also drug-loaded unmodified apatite-based matrix in MCF7 cell line. Apatite-based matrix was formulated with different Ca^2+ concentrations (7 mM, 8 mM and 9 mM) and 20 uM of drug. Free drug (20 uM) was used as control.
# [4] = Concentration of detected drug accumulated in tumour after intravenous delivery; type: in vivo, mouse; details: gemcitabine accumulated in tumour, 4T1-induced breast tumour mice
# Method: 4T1 cells were inoculated subcutaneously on the mammary pad of mice. […] The injections were intravenously administered twice within an interval of 3 days to a 4T1 cancer cells-induced syngeneic mouse model of breast cancer. Measurements on tumour volume at day 8, 10, 12, 14, 16, 18, 20 and 22 were taken. The concentration of detected drug in tumour were also measured, followed by observation on bio-distribution of drugs in each organ. Six mice per group were used and data were represented as mean±SD of tumour volume.
smiles,measurement,setting,value
"O=c1[nH]cc(F)c(=O)[nH]1 [5-FU, 5-fluorouracil]",Interaction efficiency (%) of each drug with apatite-based matrix,[1],0%
same,Interaction efficiency (%) of each drug with apatite-based matrix,[1]; listed as 5-fluorouracil (5-FU),did not show any affinity
same,Interaction efficiency (%) of each drug with the apatite-based matrix,[1]; matrix formed with CaCl2,0%
same,Interaction efficiency (%) of each drug with the apatite-based matrix,[1]; matrix formed with SrCl2,1.21 ± 0.56%
"O=P1(N(CCCl)CCCl)NCCCO1 (stereo not drawn) [Cyp, cyclophosphamide]",Interaction efficiency (%) of each drug with apatite-based matrix,[1],13.10 ± 5.47%
same,Interaction efficiency (%) of each drug with the apatite-based matrix,[1]; matrix formed with CaCl2,13.10 ± 5.47%
same,Interaction efficiency (%) of each drug with the apatite-based matrix,[1]; matrix formed with SrCl2,11.19 ± 8.16%
"COc1cccc2c1C(=O)c1c(O)c3c(c(O)c1C2=O)C[C@@](O)(C(=O)CO)C[C@@H]3O[C@H]1C[C@H](N)[C@H](O)[C@H](C)O1 [DOX, doxorubicin]",% Cellular uptake 1 hour of treatment,[2]; DOX 1 μM,22.4% ± 1.73
same,% Cellular uptake 4 hours of treatment,[2]; DOX 1 μM,31.71% ± 5.92
same,% Cellular uptake 1 hour of treatment,[2]; DOX 5 μM,24.75% ± 0.14
same,% Cellular uptake 4 hours of treatment,[2]; DOX 5 μM,32.07% ± 0.82
"CC(C)(C#N)c1cc(Cn2cncn2)cc(C(C)(C)C#N)c1 [Free anastrozole, anastrozole]",cellular uptake (%),"[3]; anastrozole 20 uM, 1 h",18.5% ± 2.4
same,cellular uptake (%),"[3]; anastrozole 20 uM, 4 h",47.75% ± 2.3
same,cellular uptake (%),"[3]; anastrozole 20 uM, 24 h",89.5% ± 3
"Nc1ccn([C@@H]2O[C@H](CO)[C@@H](O)C2(F)F)c(=O)n1 [Free gemcitabine, gemcitabine]",cellular uptake (%),"[3]; gemcitabine 20 uM, 1 h",30.5% ± 1.2
same,cellular uptake (%),"[3]; gemcitabine 20 uM, 4 h",50.75% ± 2.3
same,cellular uptake (%),"[3]; gemcitabine 20 uM, 24 h",100%
same,Detected Drug Concentration (ng/ml),[4],"27,03333 ng/ml"
"CN(Cc1cnc2nc(N)nc(N)c2n1)c1ccc(C(=O)N[C@@H](CCC(=O)O)C(=O)O)cc1 [Mtx, methotrexate]",Interaction efficiency (%) of each drug with apatite-based matrix,[1],1.73 ± 0.85%
same,Interaction efficiency (%) of each drug with the apatite-based matrix,[1]; matrix formed with CaCl2,1.73 ± 0.85%
same,Interaction efficiency (%) of each drug with the apatite-based matrix,[1]; matrix formed with SrCl2,27.76 ± 5.62%
